Measured values as given in patent US20160038505A1, “METHODS AND COMPOSITIONS FOR TREATING IMPULSE CONTROL DISORDER, ANXIETY-RELATED DISORDERS, VIOLENCE AND/OR ANGER, OR REGULATING FOOD INTAKE” (priority 2014, published 2016).

Tests used:
[1] = tested on: adult wild type short-fin zebrafish; assay: Zebrafish novel tank test (NTT), anxiety-related endpoints; assay type: in vivo
Experimental: A total of 60 adult wild type short-fin zebrafish (˜50:50 male:female ratio) were used in this study. Fish were housed in groups of 20-30 fish per 40-L tank. Tanks were filled with filtered water and maintained at 25° C. Illumination (1000-1100 1×) was provided by ceiling-mounted fluorescent lights on a 12-h cycle (on: 6.00 h, off: 18.00 h) according to the standards of zebrafish care. All fish used in this study were experimentally naïve and fed Tetramin Tropical Flakes (Tetra USA, Blacksburg, Va.) twice a day. Following behavioral testing, the animals were euthanized in 500 mg/L Tricaine (Sigma-Aldrich, St. Louis, Mo.) buffered to pH=7.0. Animal experimentation in this study fully adhered to national and institutional guidelines and regulations.
As such, a 1 mg/L dose of noribogaine (DMX1 or Cpd) was chosen. A standard 20-min pre-treatment time was chosen based on experience with a wide range of other neuroactive compounds and the results of pilot studies. This exposure time was also sufficient for provoking physiological (e.g., cortisol and c-fos) responses of zebrafish to multiple drugs. Noribogaine exposure in this study was performed by submerging individual zebrafish in a 1-L plastic beaker for 20 min prior to the testing. The solution was regularly changed after each exposure, to ensure that each fish is exposed to a consistent concentration of noribogaine. Control fish were exposed to noribogaine-free water for the same treatment time, as described above.
Apparatus: Behavioral testing was performed between 11:00 and 15:00 h using tanks with water adjusted to the holding room temperature (25° C.). The study used the novel tank test (NTT) protocol. NTT represents one of the most commonly used neurophenotyping tests for adult zebrafish. To avoid the test battery or handling effects, each assay was performed once, on a separate individual naïve fish each time. Prior to testing, fish were pre-exposed individually in a 1-L plastic beaker for 20 min to either noribogaine-treated or noribogaine-free water. During testing, zebrafish behavior was recorded by two trained observers blind to the treatments, who manually scored different behavioral endpoints (inter- and intra-rater reliability in all experiments >0.85) with subsequent automated analysis of generated traces by Ethovision XT8.5 software (Noldus IT, Wageningen, Netherlands). The NTT, used to assess zebrafish anxiety and locomotion, was a 1.5-L trapezoidal tank (15 cm height×28 cm top×23 cm bottom×7 cm width; Aquatic Habitats, Apopka, Fla.) maximally filled with water and divided into two equal virtual horizontal portions by a line marking the outside walls. Fish were individually pre-exposed to water (water control) or noribogaine (1, 5 and 10 mg/L) for 20 min and tested in the standard 5-min NTT.
Behavioral analyses: Zebrafish behavior was recorded by trained observers, scoring the latency to reach the top half of the tank(s), time spent in top(s), number of transitions to top, as well as the number and duration(s) of freezing bouts. Freezing was defined as a total absence of movement, except for the gills and eyes, for >2 s. Trials were also recorded to a computer using a USB webcam (2.0-megapixel, Gigaware, UK) and subsequently analyzed by Ethovision XT8.5, assessing distance traveled (m), velocity (m/s), and meandering endpoints. During manual observation, videos were recorded in MPEG1 format with the maximum sample rate 30 fps for each trial by auto-focusing 2.0 MP USB webcams, placed 25 cm in front of the tanks, and attached to laptop computers. Recorded videos were analyzed with Ethovision XT8.5 software. All environments were calibrated for each arena and the calibration axes were placed to designate the origin (0,0) at the center of each tank. The track data for each fish was exported as raw data into separate spreadsheets. […]

[2] = tested on: opioid-dependent participants; assay: Treatment emergent adverse events in opioid-dependent participants (Phase IB); assay type: in vivo, human
Experimental: This example is to illustrate that noribogaine can be administered at a therapeutic dosing while maintaining an acceptable QT interval.
See PCT Application No. PCT/US2013/069235, filed Nov. 8, 2013, which is incorporated herein by reference in its entirety.
Three cohorts of nine (9) subjects (6 administered noribogaine and 3 administered placebo in each cohort) were evaluated for tolerability, pharmacokinetics, and efficacy. Cohort 1 received a single dose of 60 mg noribogaine or placebo. Cohort 2 received a single dose of 120 mg noribogaine or placebo. Cohort 3 received a single dose of 180 mg noribogaine or placebo.

## CC[C@H]1CC2C[C@H]3c4[nH]c5ccc(O)cc5c4CCN(C2)C13 [noribogaine]
[1]; 1 mg/L
  anxiolytic-like behavior: robust anxiolytic-like behavior without any overt hyperactivity/hypoactivity or circling behaviors
  efficacy, pilot experiments: sub-maximal efficacy
[1]; 1-, 5- and 10-mg/L
  distance moved and velocity: moderate, but non-significant, decrease
  freezing bouts frequency and duration of freezing: no difference in freezing bouts frequency
  movement mobility (HF hi-mobility events): dose-related disappearance of HF hi-mobility events
[1]; 1-, 5- and 10-mg/L vs control
  transitions to upper half of the tank: none of the treatment groups showed a statistically significant change
[1]; 5- and 10-mg/L
  overall turning rates and patterns (meander total): statistically significant decrease in overall turning rates and patterns (meander)
  swimming motor activity, pilot experiments: caused reduction in selected swimming motor activity levels
[1]; 5 and 10 mg/L (control 10)
  number of top transitions: ~7
[1]; Danio rerio, 20 min, water immersion 20 min, read-out: half-efficacy on indices of anxiety levels (time in top, latency in top)
  EC50: < 1 µg/mL
[1]; each of 1-, 5- and 10-mg/L
  time spent in top portion of the tank: statistically significant increase in the duration of time spent in the defined top portion of the tank
[1]; each of 1-, 5- and 10-mg/L, 20 min immersion, 5-min NTT
  latency to the upper half of the tank: statistically significant decrease in latency to the upper half of the tank
[1]; significant at the 10 mg/L dose
  turning/rotation rate: decrease in turning/rotation rate
[2]; 60 mg (N = 6)
  Adverse event: Catheter Site Infection: 0
  Adverse event: Catheter Site Pain: 0
  Adverse event: Catheter Site Related Reaction: 0
  Adverse event: Cellulitis: 0
  Adverse event: Diarrhoea: 0
  Adverse event: Dry Mouth: 0
  Adverse event: Ear and Labyrinth Disorders: 0
  Adverse event: Epistaxis: 0
  Adverse event: Euphoric Mood: 0
  Adverse event: General Disorders and Administration Site Conditions: 0
  Adverse event: Hyperaesthesia: 0
  Adverse event: Infections and Infestations: 0
  Adverse event: Limb Discomfort: 0
  Adverse event: Malaise: 0
  Adverse event: Nausea: 0
  Adverse event: Oropharyngeal Pain: 0
  Adverse event: Pseudoparalysis: 0
  Adverse event: Respiratory, Thoracic and Mediastinal Disorders: 0
  Adverse event: Rhinorrhoea: 0
  Adverse event: Skin Discomfort: 0
  Adverse event: Skin Irritation: 0
  Adverse event: Skin and Subcutaneous Tissue Disorders: 0
  Adverse event: Somnoience: 0
  Adverse event: Tinnitus: 0
  Adverse event: Tremor: 0
  Adverse event: Urinary Tract Infection: 0
  Adverse event: Vomiting: 0
[2]; 120 mg (N = 6)
  Adverse event: Back Pain: 0
  Adverse event: Catheter Site Infection: 0
  Adverse event: Catheter Site Related Reaction: 0
  Adverse event: Depressed Mood: 0
  Adverse event: Dry Eye: 0
  Adverse event: Dyspepsia: 0
  Adverse event: Euphoric Mood: 0
  Adverse event: Limb Discomfort: 0
  Adverse event: Malaise: 0
  Adverse event: Musculoskeletal and Connective Tissue Disorders: 0
  Adverse event: Psychiatric Disorders: 0
  Adverse event: Somnoience: 0
  Adverse event: Urinary Tract Infection: 0
[2]; 180 mg (N = 6)
  Adverse event: Catheter Site Infection: 0
  Adverse event: Catheter Site Pain: 0
  Adverse event: Depressed Mood: 0
  Adverse event: Diarrhoea: 0
  Adverse event: Dry Eye: 0
  Adverse event: Dyspepsia: 0
  Adverse event: Ear and Labyrinth Disorders: 0
  Adverse event: Epistaxis: 0
  Adverse event: Euphoric Mood: 0
  Adverse event: Hyperaesthesia: 0
  Adverse event: Malaise: 0
  Adverse event: Oropharyngeal Pain: 0
  Adverse event: Pseudoparalysis: 0
  Adverse event: Psychiatric Disorders: 0
  Adverse event: Respiratory, Thoracic and Mediastinal Disorders: 0
  Adverse event: Rhinorrhoea: 0
  Adverse event: Skin Discomfort: 0
  Adverse event: Skin Irritation: 0
  Adverse event: Skin and Subcutaneous Tissue Disorders: 0
  Adverse event: Somnoience: 0
  Adverse event: Tinnitus: 0
  Adverse event: Tremor: 0
[2]; 60, 120 or 180 mg single dose
  hallucinatory effects: no hallucinatory effects
